The text below walks through data of patent publication US9388389B2, “JFH-1 based HCV cell culture systems for NS5A of genotypes 1-7” (Hvidovre Hospital, priority 2009, dated 2016).

SMILES strings stand for the structures. Like-named read-outs stand apart in the source and are kept apart here.

What all share (test): BMS-790052 treatment of infected cultures
The subject of assay [1] is DH6(1a) NS5A recombinant. The format is cell-based. The following applies: Hepatitis C virus; genotype 1a, isolate DH6 NS5A recombinant; read-out: NS5A inhibitor, EC50 (nM), original. As to the method: (§1) 5×10^3 naïve Huh7.5 cells were plated per well in a poly-D-lysine coated 96-well plate (Nunc, Roskilde, D K) one day before infection with different recombinant viruses. Infectious doses were chosen to aim at 400-1000 single infected cells in non-treated wells at the end of the experiment. J6/JFH1 was included with two infectious doses (high and low) to control for impact of dose variability. The infectious dose of other recombinants was in the range between. […] On day three cells were fixed and immunostained for NS3 expression as described above. In parallel, cell viability was monitored with CellTiter™ 96 AQueous One Solution Cell Proliferation Assay (Promega, Madison, Wis. USA). The number of single infected cells was determined by automated counting of individual wells as described above.
(§2) To improve HCV treatment, much attention has been drawn to development of specific small molecule HCV inhibitors, including inhibitors of NS5A. Using the NS5A genotype recombinants, we investigated sensitivity to the NS5A inhibitor most advanced in clinical trials, BMS-790052. Treatment experiments using the specific NS5A inhibitor BMS-790052 (synthesized by Acme Bioscience, Palo Alto, Calif., USA) were conducted similar to what was described for interferon-alpha.

For assay [2], the system named is ED43(4a) NS5A recombinant. The format is cell-based. The note with it: Hepatitis C virus, read-out: NS5A inhibitor, EC50 (nM), original. As to the method: as §1, §2
The subject of assay [3] is H77C(1a) NS5A recombinant. The format is cell-based. The note with it: Hepatitis C virus; genotype 1a, isolate H77C NS5A recombinant; read-out: NS5A inhibitor, EC50 (nM), original. As to the method: as §1, §2
In assay [4] the test system is HCV-1(1a) NS5A recombinant. The format is cell-based. The following applies: Hepatitis C virus; genotype 1a, isolate HCV-1 NS5A recombinant; read-out: NS5A inhibitor, EC50 (nM), original. As to the method:
as §1, §2

In assay [5] the test system is HK6a(6a) NS5A recombinant. The format is cell-based. The following applies: Hepatitis C virus; genotype 6a, isolate HK6a NS5A recombinant; read-out: NS5A inhibitor, EC50 (nM), original. On the procedure:
as §1, §2

For assay [6], the system named is J1(1a) NS5A recombinant. The format is cell-based. The note with it: Hepatitis C virus. On the procedure: as §1, §2
Assay [7] deals with J4(1b) NS5A recombinant. The format is cell-based. The following applies: Hepatitis C virus. As to the method:
as §1, §2

The test system of assay [8] is J6(2a) NS5A recombinant. The format is cell-based. The following applies: Hepatitis C virus. On the procedure:
as §1, §2

Assay [9] relates to JFH1(2a) NS5A (J6/JFH1). The format is cell-based. The note with it: Hepatitis C virus; genotype 2a, isolate JFH1 NS5A (J6/JFH1); read-out: NS5A inhibitor, EC50 (nM), original. As to the method: as §1, §2
Assay [10] concerns QC69(7a) NS5A recombinant. The format is cell-based. The note with it: Hepatitis C virus; genotype 7a, isolate QC69 NS5A recombinant; read-out: NS5A inhibitor, EC50 (nM), original. On the procedure: as §1, §2
In assay [11] the test system is S52(3a) NS5A recombinant. The format is cell-based. The following applies: Hepatitis C virus. As to the method: as §1, §2
For assay [12], the system named is SA13(5a) NS5A recombinant. The format is cell-based. The note with it: Hepatitis C virus; genotype 5a, isolate SA13 NS5A recombinant; read-out: NS5A inhibitor, EC50 (nM), original. As to the method:
as §1, §2

In assay [13] the test system is TN(1a) NS5A recombinant. The format is cell-based. The note with it: Hepatitis C virus; genotype 1a, isolate TN NS5A recombinant; read-out: NS5A inhibitor, EC50 (nM), original. On the procedure:
as §1, §2

In assay [14] the test system is J6/JFH1 with NS5A mutation L27I. The format is cell-based, hepatitis C virus.

As to `COC(=O)N[C@H](C(=O)N1CCC[C@H]1c1nc(-c2ccc(-c3ccc(-c4c[nH]c([C@@H]5CCCN5C(=O)[C@@H](NC(=O)OC)C(C)C)n4)cc3)cc2)c[nH]1)C(C)C` [BMS-790052], the EC50 in assay [1] stood at 0.065 nM; in [2], 0.017 nM; in assay [3], 0.026 nM; in assay [4] it was 0.12 nM; in assay [5] it was 0.031 nM; in [6] (J1(1a), read-out: EC50) it was 1.1 nM. Further, the EC50 came to 1.1 nM in [6] (genotype 1a, isolate J1 NS5A recombinant, read-out: NS5A inhibitor, EC50 (nM), original); 0.009 nM in assay [7] (J4(1b), most sensitive, read-out: EC50); 0.009 nM in assay [7] (genotype 1b, isolate J4 NS5A recombinant, read-out: NS5A inhibitor, EC50 (nM), original); 14 nM in [8] (J6(2a), read-out: EC50); 14 nM in assay [8] (genotype 2a, isolate J6 NS5A recombinant, read-out: NS5A inhibitor, EC50 (nM), original); 0.097 nM in assay [9]. Moreover, the EC50 in [10] stood at 0.05 nM; in assay [11] (S52(3a), read-out: EC50) it was 0.9 nM; in [11] (genotype 3a, isolate S52 NS5A recombinant, read-out: NS5A inhibitor, EC50 (nM), original), 0.9 nM; in assay [12], 0.034 nM; in assay [13] it was 0.038 nM; in assay [14] (Hepatitis C virus, JFH1(2a), NS5A mutation L27I, single experiment of three replicates, read-out: NS5A inhibitor, EC50 (nM), putative resistance mutant) it was 0.14 nM. Besides, in assay [14] (JFH1(2a) L27I vs original JFH1(2a)), the “Fold resistance compared to original” value is given as 1.6 fold.

A word on the EC50: it is the concentration needed to bring the measured effect to its halfway point.
